The target of one assay is T1, p38 kinase (Homo sapiens, UniProt Q16539).
T1 construct: GST (N); made in house; host or cells: E. coli
As to the kind of experiment: p38 Kinase Assay. The class given is biochemical. The procedure: The peptide substrate used in the p38 assay was biotin-IPTSPITTTYFFFRRR-amide. The p38 and MEK6 proteins were purified to homogeneity from E. coli expression systems. The fusion proteins were tagged at the N-terminus with Glutathione-S-Transferase (GST). The maximum activation was achieved by incubating 20 uL of a reaction mixture of 30 nM MEK6 protein and 120 nM p38 protein in the presence of 1.5 uM peptide and 10 mM Mg (CH3CO2)2 in 100 mM HEPES7 pH 7.5, added to 15 uL of a mixture of 1.5 uM ATP with 0.08 uCi [g-^33P]ATP, with or without 15 uL of inhibitor in 6% DMSO. The controls were reactions in the presence (negative controls) or absence (positive controls) of 50 mM EDTA. Reactions were allowed to proceed for 60 min at room temperature and quenched with addition of 50 uL of 250 mM EDTA and mixed with 150 uL of Streptavidin SPA beads (Amersham) to 0.5 mg/reaction. The Dynatech Microfluor white U-bottom plates were sealed and the beads were allowed to settle overnight. The plates were counted in a Packard TopCount for 60 seconds. IC50 values were obtained by fitting raw data to % I=100*(1−(I−C2)/(C1−C2)), where I was […], C1 was positive control, and C2 was negative control.

Assay [1] addresses T2, JNK3 kinase (Jnk-3alpha-2) (Homo sapiens, UniProt P53779).
T2 construct: Jnk-3alpha-2 (as a truncated construct, residues 39 to 224) was expressed in E. coli as a GST fusion protein; Following purification the GST portion was removed by thrombin cleavage; fused on or other part: An N-terminal GST tag was used for expression and removed by thrombin cleavage before the assay
The assay is described as follows: JNK3 Kinase Assay. The class given is biochemical. The procedure:
JNK3 Kinase Assay Jnk-3alpha-2 (as a truncated construct, residues 39 to 224) was expressed in E. coli as a GST fusion protein. Following purification the GST portion was removed by thrombin cleavage. The enzyme was stored at −80° C. Substrate c-Jun was expressed as a GST fusion protein including a signal peptide (biotinylation site) in E. coli. Following purification the substrate was biotinylated on a specific lysine in the signal peptide using biotin ligase. Prior to assay Jnk-3 was pre-activated by incubation with MgATP. The enzyme (10 nM) was screened in 40 mM HEPES (pH 7.4), 150 mM NaCl, 20 mM glycerophosphate, 1 mM DTT, 0.2 mM vanadate, 200 nM biotin-c-Jun, 5 mM MgCl2 and 10 uM ATP. Inhibitors were added over a conc range of from 0 to 10 uM in DMSO (fc 3%). The reaction was stopped by the addition of 25 mM EDTA. Phospho-c-Jun was detected using homogeneous time resolved fluorescence (HTRF) with a Eu-labelled antiphosphoserine (Serine 73) and streptavidin APC.

[2] abbreviates: Table 8, read-out: JNK3 kinase (inhibition of JNK3 kinase, IC50).
Where [3] appears, read: Table 8, compounds wherein Z is N, read-out: p38 kinase (inhibition of p38 kinase, IC50).
Setting [4] is: Table 9, p38 assays using Assay II, read-out: p38 IC50.

Where two headings read alike, the source gives them in different places. Where only a bound is given, the exact number is not on record here.

T1 sequence (Q16539 whole entry): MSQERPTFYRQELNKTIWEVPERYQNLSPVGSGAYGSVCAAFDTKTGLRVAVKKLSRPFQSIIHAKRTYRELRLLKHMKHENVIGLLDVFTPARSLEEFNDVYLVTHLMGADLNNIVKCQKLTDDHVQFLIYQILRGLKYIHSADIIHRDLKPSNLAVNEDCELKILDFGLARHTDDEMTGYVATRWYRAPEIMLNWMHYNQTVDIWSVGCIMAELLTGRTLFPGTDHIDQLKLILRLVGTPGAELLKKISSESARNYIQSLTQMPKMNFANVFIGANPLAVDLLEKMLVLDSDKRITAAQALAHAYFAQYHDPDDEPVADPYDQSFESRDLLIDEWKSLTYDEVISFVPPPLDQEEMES
T2 sequence (P53779 39-402 limits assumed): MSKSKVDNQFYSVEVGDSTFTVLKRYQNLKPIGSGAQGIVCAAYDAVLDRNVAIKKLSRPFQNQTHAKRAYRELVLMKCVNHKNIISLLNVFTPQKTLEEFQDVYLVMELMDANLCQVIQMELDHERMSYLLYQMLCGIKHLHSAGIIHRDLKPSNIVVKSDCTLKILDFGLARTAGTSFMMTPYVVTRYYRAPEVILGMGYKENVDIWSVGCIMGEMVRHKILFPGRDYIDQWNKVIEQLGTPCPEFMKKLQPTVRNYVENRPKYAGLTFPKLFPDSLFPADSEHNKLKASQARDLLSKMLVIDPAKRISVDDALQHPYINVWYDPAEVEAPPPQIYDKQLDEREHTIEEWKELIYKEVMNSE

As usually defined, the IC50 is the concentration needed to halve the response being measured. For the compound `OCc1ccn2nc(-c3ccc(F)cc3)c(-c3ccncc3)c2c1` [Example 6, 2-(4-Fluorophenyl)-5-hydroxymethyl-3-(4-pyridinyl)pyrazolo[1,5-a]pyridine], the IC50 on p38 kinase (Table 7, compounds wherein Z is CH, read-out: P38 kinase (inhibition of p38 kinase, IC50)) was below 500 nM.

For `Fc1ccc(-c2nn3ccccc3c2-c2ccnc(NC3CC3)n2)cc1` [Example 61, N-Cyclopropyl-4-[2-(4-fluorophenyl)pyrazolo[1,5-a]pyridin-3-yl]-2-pyrimidinamine], the IC50 (in assay [1] (setting [2]); at p38 kinase (setting [3])) was below 500 nM throughout.

On to `Nc1nccc(-c2c(-c3ccc(F)cc3)nn3cc(C(F)(F)F)ccc23)n1` [Example 65, 4-[2-(4-Fluorophenyl)-6-trifluoromethylpyrazolo[1,5-a]pyridin-3-yl]-2-pyrimidinamine], for which, on p38 kinase (setting [3]), the IC50 was below 500 nM.

Turning to `OCCCNc1nccc(-c2c(-c3ccc(F)cc3)nn3cc(C(F)(F)F)ccc23)n1` [Example 72, 3-(4-[2-(4-Fluorophenyl)-6-trifluoromethylpyrazolo[1,5-a]pyridin-3-yl]-2-pyrimidinylamino)-1-propanol], the IC50 at p38 kinase (setting [3]) was below 500 nM.

Regarding `NC(=O)c1ccc2c(-c3ccnc(NCCCO)n3)c(-c3ccc(F)cc3)nn2c1` [Example 76, 2-(4-Fluorophenyl)-3-(4-(2-(3-hydroxypropyl)amino)pyrimidinyl)-6-pyrazolo-[1,5-a]pyridinylcarboxamide], the IC50 at p38 kinase (setting [3]) is below 500 nM.

On to `CN1CCN(CCCNc2nccc(-c3c(-c4ccc(F)cc4)nn4cc(C(N)=O)ccc34)n2)CC1` [Example 79, 2-(4-Fluorophenyl)-3-(4-(2-(3-(4-methylpiperazino)propyl)amino)pyrimidinyl)-6-pyrazolo-[1,5-a]pyridinylcarboxamide], for which, at p38 kinase (setting [3]), the IC50 is below 500 nM.

For the compound `Fc1ccc(-c2nn3cc(C(F)(F)F)ccc3c2-c2ccnc(Oc3ccccc3)n2)cc1` [Example 84, 2-(4-Fluorophenyl)-3-(2-phenoxypyrimidin-4-yl)-6-(trifluoromethyl)pyrazolo[1,5-a]pyridine], the IC50 (in assay [1] (setting [2]); at p38 kinase (setting [3])) was below 500 nM in each case.

Turning to `Cc1ccc(C)c(Oc2nccc(-c3c(-c4ccc(F)cc4)nn4cc(C(F)(F)F)ccc34)n2)c1` [Example 86, 3-[2-(2,5-Dimethylphenoxy)pyrimidin-4-yl]-2-(4-fluorophenyl)-6-(trifluoromethyl)pyrazolo[1,5-a]pyridine], the IC50 (in assay [1] (setting [2]); on p38 kinase (setting [3])) was below 500 nM throughout.

Turning to `CN(C)CCCNc1nccc(-c2c(-c3ccc(F)cc3)nn3cc(C(F)(F)F)ccc23)n1` [Example 87, N-[3-(dimethylamino)propyl]-N-[4-{2-(4-fluorophenyl)-6-(trifluoromethyl)pyrazolo[1,5-a]pyridin-3-yl}pyrimidin-2-yl]amine], the IC50 in assay [1] (Table 9, read-out: JNK3 IC50) was 1000 to 10000 nM; on p38 kinase (setting [4]), 100 to 1000 nM.

For `CN(C)CCCNc1nccc(-c2c(-c3ccc(C(F)(F)F)cc3)nn3cc(C(F)(F)F)ccc23)n1` [Example 88, N-[3-(dimethylamino)propyl]-N-[4-{6-(trifluoromethyl)-2-[4-(trifluoromethyl)phenyl]pyrazolo[1,5-a]pyridin-3-yl}pyrimidin-2-yl]amine], the IC50 in assay [1] (Table 9, read-out: JNK3 IC50) lay in the range of 1000 to 10000 nM; at p38 kinase (setting [4]) it was 1000 to 10000 nM.

`CN(C)CCCNc1nccc(-c2c(-c3ccc(F)c(Cl)c3)nn3cc(C(F)(F)F)ccc23)n1` [Example 89, N-[4-{2-[3-chloro-4-fluorophenyl]-6-(trifluoromethyl)pyrazolo-[1,5-a]pyridin-3-yl}pyrimidin-2-yl]-N-[3-(dimethylamino)propyl]amine]: the 50% inhibitory concentration (IC50) lay within 1000 to 10000 nM in assay [1] (Table 9, read-out: JNK3 IC50) and 10 to 100 nM at p38 kinase (setting [4]).

Turning to `CN(C)CCCNc1nccc(-c2c(-c3cccc(Cl)c3)nn3cc(C(F)(F)F)ccc23)n1` [Example 90, N-{4-[2-(3-chlorophenyl)-6-(trifluoromethyl)pyrazolo[1,5-a]pyridin-3-yl]pyrimidin-2-yl}-N-[3-(dimethylamino)propyl]amine], the concentration for half-maximal inhibition (IC50) was in the range of 1000 to 10000 nM in assay [1] (Table 9, read-out: JNK3 IC50) and 10 to 100 nM on p38 kinase (setting [4]).

As for `CCN(CC)CCCCNc1nccc(-c2c(-c3ccc(F)c(Cl)c3)nn3cc(C(F)(F)F)ccc23)n1` [Example 93, N-{4-[2-(3-chloro-4-fluorophenyl)-6-(trifluoromethyl)pyrazolo-[1,5-a]pyridin-3-yl]pyrimidin-2-yl}-N-[4-(diethylamino)butyl]amine], the IC50 in assay [1] (Table 9, read-out: JNK3 IC50) was in the range of 100 to 1000 nM; on p38 kinase (setting [4]) it was 10 to 100 nM.

Take `CCN(CC)CCCCNc1nccc(-c2c(-c3cccc(Cl)c3)nn3cc(C(F)(F)F)ccc23)n1` [Example 94, N-{4-[2-(3-chlorophenyl)-6-(trifluoromethyl)pyrazolo[1,5-a]pyridin-3-yl]pyrimidin-2-yl}-N-[4-(diethylamino)butyl]amine]: the IC50 in assay [1] (Table 9, read-out: JNK3 IC50) was 100 to 1000 nM; on p38 kinase (setting [4]) it was 10 to 100 nM.

`CCN(CC)CCNc1nccc(-c2c(-c3ccc(C(F)(F)F)cc3)nn3cc(C(F)(F)F)ccc23)n1` [Example 95, N-[2-(diethylamino)ethyl]-N-(4-{6-(trifluoromethyl)-2-[4-(trifluoromethyl)phenyl]pyrazolo[1,5-a]pyridin-3-yl}pyrimidin-2-yl)amine]: on p38 kinase (setting [4]), the IC50 was in the range of 1000 to 10000 nM.

Take `CCN(CC)CCNc1nccc(-c2c(-c3cccc(Cl)c3)nn3cc(C(F)(F)F)ccc23)n1` [Example 96, N-{4-[2-(3-chlorophenyl)-6-(trifluoromethyl)pyrazolo[1,5-a]pyridin-3-yl]pyrimidin-2-yl}-N-[2-(diethylamino)ethyl]amine]: the IC50 on p38 kinase (setting [4]) fell in the range of 100 to 1000 nM.

Take `CCCN(CCC)CCNc1nccc(-c2c(-c3ccc(C(F)(F)F)cc3)nn3cc(C(F)(F)F)ccc23)n1` [Example 97, N-[2-(dipropylamino)ethyl]-N-(4-{6-(trifluoromethyl)-2-[4-(trifluoromethyl)phenyl]pyrazolo[1,5-a]pyridin-3-yl}pyrimidin-2-yl)amine]: the IC50 at p38 kinase (setting [4]) lay in the range of 1000 to 10000 nM.

Consider `CCCN(CCC)CCNc1nccc(-c2c(-c3ccc(F)c(Cl)c3)nn3cc(C(F)(F)F)ccc23)n1` [Example 98, N-{4-[2-(3-chloro-4-fluorophenyl)-6-(trifluoromethyl)pyrazolo-[1,5-a]pyridin-3-yl]pyrimidin-2-yl}-N-[2-(dipropylamino)ethyl]amine], for which the IC50 in assay [1] (Table 9, read-out: JNK3 IC50) lay within 1000 to 10000 nM; at p38 kinase (setting [4]), 100 to 1000 nM.

As to `FC(F)(F)c1ccc(-c2nn3cc(C(F)(F)F)ccc3c2-c2ccnc(NCCN3CCCC3)n2)cc1` [Example 103, N-(2-pyrrolidin-1-ylethyl)-N-(4-{6-(trifluoromethyl)-2-[4-(trifluoromethyl)phenyl]pyrazolo[1,5-a]pyridin-3-yl}pyrimidin-2-yl)amine], the IC50 at p38 kinase (setting [4]) lay in the range of 1000 to 10000 nM.

As to `FC(F)(F)c1ccc(-c2nn3cc(C(F)(F)F)ccc3c2-c2ccnc(NCCN3CCCCC3)n2)cc1` [Example 108, N-(2-piperidin-1-ylethyl)-N-(4-{6-(trifluoromethyl)-2-[4-(trifluoromethyl)phenyl]pyrazolo[1,5-a]pyridin-3-yl}pyrimidin-2-yl)amine], on p38 kinase (setting [4]), the IC50 was 1000 to 10000 nM.

On to `FC(F)(F)c1ccc(-c2nn3cc(C(F)(F)F)ccc3c2-c2ccnc(NCCN3CCOCC3)n2)cc1` [Example 119, N-(2-morpholin-4-ylethyl)-N-(4-{6-(trifluoromethyl)-2-[4-(trifluoromethyl)phenyl]pyrazolo[1,5-a]pyridin-3-yl}pyrimidin-2-yl)amine], for which the IC50 on p38 kinase (setting [4]) lay in the range of 1000 to 10000 nM.

As to `FC(F)(F)c1ccc(-c2nn3cc(C(F)(F)F)ccc3c2-c2ccnc(NCCCN3CCOCC3)n2)cc1` [Example 121, N-(3-morpholin-4-ylpropyl)-N-(4-{6-(trifluoromethyl)-2-[4-(trifluoromethyl)phenyl]pyrazolo[1,5-a]pyridin-3-yl}pyrimidin-2-yl)amine], the half-maximal inhibitory concentration (IC50) at p38 kinase (setting [4]) was 1000 to 10000 nM.

(Values after patent US7166597B2, “Fused pyrazole derivatives being protein kinase inhibitors” (Glaxo Group Limited, priority 2000, dated 2007).)
